The results in this text go back to publication PMC3907690 (FEBS Open Bio, 2014).

Some targets named below: WalKc(H) (Bacillus anthracis, UniProt A0A6H3AEB6); WalKc (Bacillus anthracis, UniProt A0A6H3AEB6); WalKc(PH) (Bacillus anthracis, UniProt A0A6H3AEB6); WalR (Bacillus anthracis, UniProt A0A2P0HLU7).

Sequence of WalKc(H) (A0A6H3AEB6 380-613 limits assumed): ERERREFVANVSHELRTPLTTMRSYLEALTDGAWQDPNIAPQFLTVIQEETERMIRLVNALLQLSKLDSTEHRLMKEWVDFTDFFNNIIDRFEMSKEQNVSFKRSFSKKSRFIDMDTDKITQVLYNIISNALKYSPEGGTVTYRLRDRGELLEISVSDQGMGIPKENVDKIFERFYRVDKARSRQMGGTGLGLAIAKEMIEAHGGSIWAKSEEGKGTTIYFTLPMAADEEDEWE
Sequence of WalR (A0A2P0HLU7 1-235): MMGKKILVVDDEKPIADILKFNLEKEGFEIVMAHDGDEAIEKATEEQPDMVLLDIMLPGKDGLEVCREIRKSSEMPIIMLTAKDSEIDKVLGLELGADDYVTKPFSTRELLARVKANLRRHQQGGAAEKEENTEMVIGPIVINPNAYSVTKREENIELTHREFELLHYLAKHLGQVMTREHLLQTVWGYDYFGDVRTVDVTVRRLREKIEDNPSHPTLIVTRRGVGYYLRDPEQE
Sequence of WalKc (A0A6H3AEB6 210-613 limits assumed): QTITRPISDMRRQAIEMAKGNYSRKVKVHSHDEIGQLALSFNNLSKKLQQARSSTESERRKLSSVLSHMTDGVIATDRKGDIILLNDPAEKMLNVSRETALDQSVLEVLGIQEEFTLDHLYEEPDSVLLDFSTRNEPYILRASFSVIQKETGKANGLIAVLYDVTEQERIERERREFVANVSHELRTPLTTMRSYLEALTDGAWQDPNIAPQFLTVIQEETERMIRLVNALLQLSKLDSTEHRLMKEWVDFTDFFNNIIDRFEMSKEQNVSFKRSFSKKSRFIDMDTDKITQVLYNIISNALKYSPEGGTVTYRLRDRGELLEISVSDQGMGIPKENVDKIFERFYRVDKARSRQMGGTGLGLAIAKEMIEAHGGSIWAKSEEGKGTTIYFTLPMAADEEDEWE
Sequence of WalKc(PH) (A0A6H3AEB6 263-613 limits assumed): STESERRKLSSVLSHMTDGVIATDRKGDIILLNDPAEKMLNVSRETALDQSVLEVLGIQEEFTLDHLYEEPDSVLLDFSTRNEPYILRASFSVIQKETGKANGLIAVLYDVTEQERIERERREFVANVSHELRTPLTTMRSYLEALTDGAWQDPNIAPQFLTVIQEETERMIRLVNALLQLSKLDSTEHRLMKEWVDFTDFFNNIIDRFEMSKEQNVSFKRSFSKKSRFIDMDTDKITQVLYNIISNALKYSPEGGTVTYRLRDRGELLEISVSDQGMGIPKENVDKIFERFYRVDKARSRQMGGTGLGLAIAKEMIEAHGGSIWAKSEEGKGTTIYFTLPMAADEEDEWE

Turning to `Nc1ncnc2c1ncn2[C@@H]1O[C@H](COP(=O)(O)OP(=O)(O)OP(=O)(O)O)[C@@H](O)[C@H]1O` [ATP], the “autophosphorylation, 32P SDS-PAGE autoradiography” value is “Both, WalKc(PH) and WalKc(H), appeared to be more efficient than WalKc in autophosphorylation” at WalKc(H); “When WalKc was incubated with labeled ATP mixture, autophosphorylation could be detected” at WalKc; “Both, WalKc(PH) and WalKc(H), appeared to be more efficient than WalKc in autophosphorylation” on WalKc(PH).
Take `NC(=O)OP(=O)(O)O` [carbamoyl phosphate]: at WalR, the “phosphorylation of WalR, native PAGE with coomassie staining” value is on record as “Carbamoyl phosphate mediated phosphorylation of WalR was also found to be inefficient”.
